Assay results: patent US20210275498A1, “IMIDAZOLYL ETHANAMIDE PENTANDIOIC ACID FOR USE IN THERAPY OF SYMPTOMS RELATED TO EXPOSURE TO LETHAL RADIATION” (priority 2018, published 2021)

How the values were obtained:
Format in all cases: in vivo
C57BL/6 mice [1] = test: Gross pathology and histopathology (testes degeneration, bone marrow cellularity) after whole-body irradiation; design: key to Supporting variable: Bone marrow celluarity (trend) / Supporting variable: Testes degradation (trend): positive trend (descriptively) +; negative trend (descriptively) −; no difference (descriptively) 0
C57BL/6 mice [2] = test: ARS scoring (posture, coat, behavior) after whole-body irradiation; design: key to Supporting variable: ARS scores (trend): positive trend (descriptively) +; negative trend (descriptively) −; no difference (descriptively) 0
Experimental: Scores on a scale of 1 to 4 (minimal, mild, moderate and severe) for posture, coat, and behavior were recorded twice daily per SNBL SOP, beginning on Day −3, except on the day of scheduled necropsy when scoring occurred only once. Observations were performed by 5 individuals during the course of the study.
After Day 0, the first ARS scoring began in the morning and the second ARS scoring began 4 to 6 hours following the completion of the morning ARS scoring. On the day of scheduled necropsy, ARS scoring occurred in the morning, prior to necropsy.
(§1) Based on the ARS Scoring SNBL SOP, if the sum of the three parameter scores totaled 8 or higher, the animal was considered moribund and was euthanized with an unscheduled necropsy performed according to the moribund animal SOP.

C57BL/6 mice [3] = test: Mortality / survival to Day 30 after whole-body irradiation (5.8 Gy or 6.0 Gy); settings: for Quantity ratio of survival probability (dose reduction factor, DRF), day 30, relative to control group: vs VL (POx1)
Excerpt: Based on a previously reported study (Williams et al. 2010, Plett et al. 2012, Chua et al. 2014, Singh et al., 2015), the mouse model was developed to investigate LD25 and LD50. The whole-body irradiation and selected dose serve as a translational in vivo model mimicking possible radiation exposure to humans following a nuclear incident.
Animals (C57BL/6 mice) were supplied by Jackson Laboratories (Bar Harbor, Me. facility). Animals were maintained at SNBL USA (Everett, Wash. facility) as stock prior to study assignment and were screened for health by veterinary staff prior to use on study. 205 animals were assigned to treatment groups.
Oral application of Myelo001 would be conducive for nuclear or other radiation incidents and was chosen for this study. […] The human equivalent dose is estimated to be 4 mg/kg based on allometric calculations.
as §1
Cageside mortality checks were conducted per SOP, twice daily after Day −3. Morning and afternoon checks began 2 to 3 hours after the completion of the respective ARS scorings. Individual assessments were only documented for apparently moribund animals by re-scoring, or for found dead animals by removal.
Survival data were summarized descriptively and graphically using the Kaplan-Meier method. Further, death rates were tabulated by treatment. The equality of two or more survivor curves was tested with log rank tests. In addition, Cox-regression models were used to estimate hazard ratios, p-values and 95% confidence intervals (95% CI).
The focus of the survival analysis is irradiation related death between irradiation on Day 0 and Day 30. Thus, the scheduled necropsies on Day 7 and Day 14 or deaths unrelated to radiation (Animals 2041, 9012 and 9021) were considered as censored events.

C57BL/6 mice [4] = test: Gross pathology and histopathology (testes degeneration, bone marrow cellularity) after whole-body irradiation; design: key to Supporting variable: Testes degradation (trend): positive trend (descriptively) +; negative trend (descriptively) −; no difference (descriptively) 0; settings: for severity of testes degradation compared to Group 2: Day 14
Excerpt: (§2) FIG. 13 Testes. (A): Percentage of severity of testes degeneration according to four categories (minimal, mild, moderate and marked) in group 2 (VL (POx1); 2), group 3 (ML (IPx2); 3), group 4 (ML (POx2); 4) and group 5 (ML (POx1); 5). (B): Percentage of severity of testes degeneration according to four categories (minimal, mild, moderate and marked) in group 2 (VL (POx1);2), 6 (GL (SCx1); 6) and 7 (M/GL (PO/SCx1); 7). (C): Percentage of severity of testes degeneration according to four categories (minimal, mild, moderate and marked) in group 8 (VH (POx1); 8 and 9 (MH (POx1); 9).
as §2, with “14 Bone marrow cellularity.” for “13 Testes.”, “bone marrow cellularity decrease” for “severity of testes degeneration”

[5] = Group 3 ML (IPx2): 25 mg/kg IP, Day −3 to 0 (6x), prophylactic, 5.8 Gy
[6] = Group 4 ML (POx2): 25 mg/kg per os, Day −3 to 0 (6x), prophylactic, 5.8 Gy
[7] = Group 5 ML (POx1): 50 mg/kg per os SID Day −2, −1, 0, prophylactic, 5.8 Gy
[8] = Group 9 MH (POx1): 50 mg/kg per os SID Day 1, 2, 3, therapeutic, 6.0 Gy
[9] = Day 14 necropsy, Group 6: 5.8 Gy, subcutaneous, 0.34 mg/kg, Days 1, 2 and 3
[10] = Group 6 GL (SCx1): 0.34 mg/kg SC SID Day 1, 2, 3, therapeutic, 5.8 Gy

O=C(O)CCCC(=O)NCCc1c[nH]cn1 [Myelo001, 5-{[2-(1H-imidazol-4-yl)ethyl]amino}-5-oxo-pentanoic acid]
testes degeneration, proportion by severity category (C57BL/6 mice [1]; Day 14, n.s. (p=0.264), Group 9 MH (POx1): 50 mg/kg per os SID Day 1, 2, 3, therapeutic, 6.0 Gy): higher proportion of testes in minimal category | decreased cellularity of the bone marrow of both sternum and femur compared to vehicle-treated control Group 8 (C57BL/6 mice [1]; Day 14 and 30 necropsies, Group 9 MH (POx1): 50 mg/kg per os SID Day 1, 2, 3, therapeutic, 6.0 Gy): lower severity of decreased cellularity | bone marrow cellularity decrease, category (C57BL/6 mice [1]; Day 30, Group 3 ML (IPx2): 25 mg/kg IP, Day −3 to 0 (6x), prophylactic, 5.8 Gy): minimal category | Supporting variable: Bone marrow celluarity (trend) (C57BL/6 mice [1]; [5]): + | Supporting variable: Testes degradation (trend) (C57BL/6 mice [1]; [5]): + | decrease of bone marrow cellularity (C57BL/6 mice [1]; [6]): did not show any significant changes | Supporting variable: Bone marrow celluarity (trend) (C57BL/6 mice [1]; [7]): − | decrease of bone marrow cellularity (C57BL/6 mice [1]; [7]): did not show any significant changes | Supporting variable: Bone marrow celluarity (trend) (C57BL/6 mice [1]; [8]): + | organ weights data (C57BL/6 mice [1]; all test article groups): no test article-related changes | frequency of normal posture score in comparison with control group (C57BL/6 mice [2]; Day 15, Group 3 ML (IPx2): 25 mg/kg IP, Day −3 to 0 (6x), prophylactic, 5.8 Gy): did not result in such changes | ARS posture score, most frequent grade (mode) (C57BL/6 mice [2]; Day 15, Group 4 ML (POx2): 25 mg/kg per os, Day −3 to 0 (6x), prophylactic, 5.8 Gy, control group 2 mild): normal | ARS posture score, most frequent grade (mode) (C57BL/6 mice [2]; Day 15, Group 5 ML (POx1): 50 mg/kg per os SID Day −2, −1, 0, prophylactic, 5.8 Gy, control group 2 mild): normal | ARS coat grade (C57BL/6 mice [2]; Day 21, Group 9 MH (POx1): 50 mg/kg per os SID Day 1, 2, 3, therapeutic, 6.0 Gy, control Group 8 mild (20%) and moderate (27%)): mostly normal | frequency of normal posture score in comparison to control group 8 (C57BL/6 mice [2]; Day 30, Group 9 MH (POx1): 50 mg/kg per os SID Day 1, 2, 3, therapeutic, 6.0 Gy): trend for the increased frequency of normal posture score | Supporting variable: ARS scores (trend) (C57BL/6 mice [2]; [5]): − | Supporting variable: ARS scores (trend) (C57BL/6 mice [2]; [7]): + | Supporting variable: ARS scores (trend) (C57BL/6 mice [2]; [8]): + | Dead (irradiation related deaths) (C57BL/6 mice [3]; [5]): 3 | Irradiation related death rate, Rate (per 100 Days) (C57BL/6 mice [3]; [5]): 1.30 per 100 Days | Survival after 30 days (Kaplan-Meier estimate) (C57BL/6 mice [3]; [5]): 0.54 | Time at Risk (C57BL/6 mice [3]; [5]): 231 days | Time to 10% death, Time (C57BL/6 mice [3]; [5]): 13 days | Hazard ratio (Cox regression, risk of radiation induced death) (C57BL/6 mice [3]; Group 3 ML (IPx2): 25 mg/kg IP, Day −3 to 0 (6x), prophylactic, 5.8 Gy, reference group VL (POx1), 2): 2.48 | Quantity ratio of survival probability (dose reduction factor, DRF), day 30, relative to control group (C57BL/6 mice [3]; Group 3 ML (IPx2): 25 mg/kg IP, Day −3 to 0 (6x), prophylactic, 5.8 Gy, 2): 0.7 | Dead (irradiation related deaths) (C57BL/6 mice [3]; [6]): 6 | Irradiation related death rate, Rate (per 100 Days) (C57BL/6 mice [3]; [6]): 0.96 per 100 Days | Time at Risk (C57BL/6 mice [3]; [6]): 627 days | Time to 10% death, Time (C57BL/6 mice [3]; [6]): 15 days | Hazard ratio (Cox regression, risk of radiation induced death) (C57BL/6 mice [3]; Group 4 ML (POx2): 25 mg/kg per os, Day −3 to 0 (6x), prophylactic, 5.8 Gy, reference group VL (POx1), 2): 1.49 | Dead (irradiation related deaths) (C57BL/6 mice [3]; [7]): 3 | Irradiation related death rate, Rate (per 100 Days) (C57BL/6 mice [3]; [7]): 0.44 per 100 Days | Time at Risk (C57BL/6 mice [3]; [7]): 680 days | Time to 10% death, Time (C57BL/6 mice [3]; [7]): 21 days | Hazard ratio (Cox regression, risk of radiation induced death) (C57BL/6 mice [3]; Group 5 ML (POx1): 50 mg/kg per os SID Day −2, −1, 0, prophylactic, 5.8 Gy, reference group VL (POx1), 2): 0.64 | Dead (irradiation related deaths) (C57BL/6 mice [3]; [8]): 3 | Irradiation related death rate, Rate (per 100 Days) (C57BL/6 mice [3]; [8]): 0.48 per 100 Days | Time at Risk (C57BL/6 mice [3]; [8]): 611 days | Time to 10% death, Time (C57BL/6 mice [3]; [8]): 23 days | survival (C57BL/6 mice [3]; Group 9 MH (POx1): 50 mg/kg per os SID Day 1, 2, 3, therapeutic, 6.0 Gy (LD50/30), control Group 8 56%): 86% | Hazard ratio (Cox regression, risk of radiation induced death) (C57BL/6 mice [3]; Group 9 MH (POx1): 50 mg/kg per os SID Day 1, 2, 3, therapeutic, 6.0 Gy, reference group VH (POx1), 8): 0.32 | severity of testes degradation compared to Group 2 (C57BL/6 mice [4]; [5]): reduced | severity of testes degradation compared to Group 2 (C57BL/6 mice [4]; [6]): reduced | severity of testes degradation compared to Group 2 (C57BL/6 mice [4]; [7]): reduced | Supporting variable: Testes degradation (trend) (C57BL/6 mice [4]; [6]): + | Supporting variable: Testes degradation (trend) (C57BL/6 mice [4]; [7]): + | Supporting variable: Testes degradation (trend) (C57BL/6 mice [4]; [8]): +

B1: G-CSF: Neupogen (Filgrastim; Granulocyte colony-stimulating factor; G-CSF), positive control article, Amgen (protein, UniProt P09919 31-207, looked up)
Granulocyte …: TPLGPASSLPQSFLLKCLEQVRKIQGDGAALQEKLVSECATYKLCHPEELVLLGHSLGIPWAPLSSCPSQALQLAGCLSQLHSGLFLYQGLLQALEGISPELGPTLDTLQLDVADFATTIWQQMEELGMAPALQPTQGAMPAFASAFQRRAGGVLVASHLQSFLEVSYRVLRHLAQP
modifications: filgrastim
notes: Neupogen (Filgrastim; Granulocyte colony-stimulating factor; G-CSF), positive control article, Amgen
gross pathology: findings not typical of acute radiation syndrome (C57BL/6 mice [1]; [9]): cysts in spleen were observed | gross pathology: lesions typical of acute radiation syndrome (red discoloration of organs) (C57BL/6 mice [1]; [9]): no red discoloration in the brain, testes | bone marrow cellularity decrease, category (C57BL/6 mice [1]; Day 30, insignificant, Group 6 GL (SCx1): 0.34 mg/kg SC SID Day 1, 2, 3, therapeutic, 5.8 Gy): minimal category in sternum and no marked category in femur bone marrow | Supporting variable: Bone marrow celluarity (trend) (C57BL/6 mice [1]; [10]): + | Supporting variable: Testes degradation (trend) (C57BL/6 mice [1]; [10]): + | ARS scoring for coat (C57BL/6 mice [2]; Day 9, Group 6 GL (SCx1): 0.34 mg/kg SC SID Day 1, 2, 3, therapeutic, 5.8 Gy): increased percentage of mild grade | ARS posture score, most frequent grade (mode) (C57BL/6 mice [2]; Day 15, Group 6 GL (SCx1): 0.34 mg/kg SC SID Day 1, 2, 3, therapeutic, 5.8 Gy, control group 2 mild (65%)): normal | Supporting variable: ARS scores (trend) (C57BL/6 mice [2]; [10]): + | Dead (irradiation related deaths) (C57BL/6 mice [3]; [10]): 1 | Irradiation related death rate, Rate (per 100 Days) (C57BL/6 mice [3]; [10]): 0.42 per 100 Days | Survival after 30 days (Kaplan-Meier estimate) (C57BL/6 mice [3]; [10]): 0.90 | Time at Risk (C57BL/6 mice [3]; [10]): 237 days | Time to 10% death, Time (C57BL/6 mice [3]; [10]): 12 days | Hazard ratio (Cox regression, risk of radiation induced death) (C57BL/6 mice [3]; Group 6 GL (SCx1): 0.34 mg/kg SC SID Day 1, 2, 3, therapeutic, 5.8 Gy, reference group VL (POx1), 2): 0.72 | Quantity ratio of survival probability (dose reduction factor, DRF), day 30, relative to control group (C57BL/6 mice [3]; Group 6 GL (SCx1): 0.34 mg/kg SC SID Day 1, 2, 3, therapeutic, 5.8 Gy, 2): 1.1 | testes degeneration, proportion by severity category (C57BL/6 mice [4]; Day 14, insignificant (p=0.078), Group 6 GL (SCx1): 0.34 mg/kg SC SID Day 1, 2, 3, therapeutic, 5.8 Gy): higher proportions of testes in the minimal category
